The assay has as its system L1210 leukemia ip in BDF1 mice, survival T/C. Nature of the assay: NCI In Vivo Anticancer Drug Screen. Data for tumor model L1210 Leukemia (intraperitoneal) in B6D2F1 (BDF1) mice. Particulars: endpoint: mean survival time, higher = longer survival. The procedure, abridged: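 Mice bearing the transplanted tumor received compound or vehicle. Survival of the treated group was divided by that of the vehicle-treated control group to give the ratio.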

Setting [1] is: dose: 60.0 mg/kg/injection, schedule: Q01DX Z (ip), vehicle: methylcellulose (MC).
The mark [2] stands for this setting: dose: 8.0 mg/kg/injection, schedule: Q01DX Z (ip), vehicle: carboxymethylcellulose (CMC).
The mark [3] stands for this setting: dose: 200.0 mg/kg/injection, schedule: Q04DX003 (ip), vehicle: Klucel (hydroxypropylcellulose) (HPC).
Setting [4] is: dose: 400.0 mg/kg/injection, schedule: Q04DX003 (ip), vehicle: Klucel (hydroxypropylcellulose) (HPC).
Where [5] appears, read: dose: 100.0 mg/kg/injection, schedule: Q01DX009 (ip), vehicle: saline.
Setting [6] is: dose: 100.0 mg/kg/injection, schedule: Q04DX003 (ip), vehicle: saline.
[7] abbreviates: dose: 200.0 mg/kg/injection, schedule: Q04DX003 (ip), vehicle: saline.
[8] abbreviates: dose: 400.0 mg/kg/injection, schedule: Q04DX003 (ip), vehicle: saline.
Where [9] appears, read: dose: 100.0 mg/kg/injection, schedule: Q01DX001 (ip), vehicle: saline.
[10] abbreviates: dose: 200.0 mg/kg/injection, schedule: Q01DX001 (ip), vehicle: saline.
The mark [11] stands for this setting: dose: 100.0 mg/kg/injection, schedule: Q04DX003 (ip), vehicle: Klucel (hydroxypropylcellulose) (HPC).

Values joined by “and” are separate entries in the source; they are usually repeats but may differ in a detail not shown here. Equal entries are not always repeated. Toxic doses and inconclusive results are not listed. Square brackets hold non-standard residues; d marks the D form. Peptide text beside a SMILES is read from it. * marks the point of attachment. Tos = Cc1ccc(S(=O)(=O)*)cc1; ΔPro = O=C(O)[CH]1C=CCN1

The results in this text go back to PubChem BioAssay AID248 (DTP/NCI, 2004).

Consider `OC1OC(CN(CCCl)c2ccccc2)C(O)C(O)C1O` (stereo unspecified), for which the T/C was 109 % of control (dose: 18.0 mg/kg/injection, schedule: Q01DX Z (ip), vehicle: methylcellulose (MC)); 117 % of control (dose: 27.0 mg/kg/injection, schedule: Q01DX Z (ip), vehicle: methylcellulose (MC)); 117 % of control under setting [1].

Take `COc1cc2c(c(OC)c1OC)-c1cc(I)c(O)cc1[C@@H](NC(C)=O)CC2`: the T/C by setting is: under setting [2], 104 % of control; (dose: 11.0 mg/kg/injection, schedule: Q01DX009 (ip), vehicle: saline with Tween-80) 114 % of control; (dose: 12.0 mg/kg/injection, schedule: Q01DX Z (ip), vehicle: carboxymethylcellulose (CMC)) 109 % of control; (dose: 16.5 mg/kg/injection, schedule: Q01DX009 (ip), vehicle: saline with Tween-80) 115 % of control; (dose: 18.0 mg/kg/injection, schedule: Q01DX Z (ip), vehicle: carboxymethylcellulose (CMC)) 119 % of control; (dose: 25.0 mg/kg/injection, schedule: Q01DX009 (ip), vehicle: saline with Tween-80) 110 % of control. The T/C was 118 % of control (dose: 28.0 mg/kg/injection, schedule: Q01DX Z (ip), vehicle: carboxymethylcellulose (CMC)); 123 % of control (dose: 28.0 mg/kg/injection, schedule: Q01DX Z (ip), vehicle: saline); 104 % of control (dose: 40.0 mg/kg/injection, schedule: Q01DX015 (ip), vehicle: carboxymethylcellulose (CMC)); 100 % of control (dose: 44.0 mg/kg/injection, schedule: Q04DX003 (ip), vehicle: saline sonified); 122 % of control (dose: 45.0 mg/kg/injection, schedule: Q01DX Z (ip), vehicle: saline); 124 % of control (dose: 50.0 mg/kg/injection, schedule: Q01DX001 (ip), vehicle: carboxymethylcellulose (CMC)). In addition, the T/C by setting is: (dose: 65.0 mg/kg/injection, schedule: Q01DX Z (ip), vehicle: saline) 105 % of control; (dose: 66.0 mg/kg/injection, schedule: Q04DX003 (ip), vehicle: saline sonified) 107 % of control; (dose: 100.0 mg/kg/injection, schedule: Q01DX001 (ip), vehicle: carboxymethylcellulose (CMC)) 120 % of control; (dose: 100.0 mg/kg/injection, schedule: Q01DX009 (ip), vehicle: saline sonified) 124 % of control; (dose: 100.0 mg/kg/injection, schedule: Q01DX Z (ip), vehicle: carboxymethylcellulose (CMC)) 122 % of control; (dose: 100.0 mg/kg/injection, schedule: Q04DX003 (ip), vehicle: saline sonified) 108 % of control. Further, the T/C (dose: 150.0 mg/kg/injection, schedule: Q04DX003 (ip), vehicle: saline sonified) is 124 % of control; the T/C under setting [3] was 111 % of control; the T/C (dose: 400.0 mg/kg/injection, schedule: Q01DX009 (ip), vehicle: saline sonified) is 165 % of control; the T/C under setting [4] was 96 % of control.

As for `COC(=O)C1C=CCN1C(=O)C(Cc1ccccc1)NS(=O)(=O)c1ccc(C)cc1` (stereo not drawn) (Tos-Phe-[ΔPro]-OMe; configuration not given here), the T/C (dose: 50.0 mg/kg/injection, schedule: Q01DX005 (ip), vehicle: saline) was 96 % of control; the T/C (dose: 100.0 mg/kg/injection, schedule: Q01DX005 (ip), vehicle: saline) is 107 % of control; the T/C (dose: 200.0 mg/kg/injection, schedule: Q01DX005 (ip), vehicle: saline) is 105 % of control.

With `O=C(Nc1ccc(C2=NC3CCCCC3N2)cc1)c1ccc(C(=O)Nc2ccc(C3=NC4CCCCC4N3)cc2)cc1` (stereo unspecified), the T/C is 96 % of control (dose: 15.0 mg/kg/injection, schedule: Q01DX Z (ip), vehicle: carboxymethylcellulose (CMC)); 92 % of control (dose: 30.0 mg/kg/injection, schedule: Q01DX Z (ip), vehicle: carboxymethylcellulose (CMC)); 96 % of control (dose: 60.0 mg/kg/injection, schedule: Q01DX Z (ip), vehicle: carboxymethylcellulose (CMC)); 103 % of control (dose: 120.0 mg/kg/injection, schedule: Q01DX Z (ip), vehicle: carboxymethylcellulose (CMC)).

`Cc1[nH]c(N)nc(=S)c1CCCN(C(=O)c1ccccc1)c1ccccc1`: the T/C reads like this: (dose: 37.5 mg/kg/injection, schedule: Q01DX001 (ip), vehicle: Klucel (hydroxypropylcellulose) (HPC)) 90 % of control; (dose: 150.0 mg/kg/injection, schedule: Q01DX001 (ip), vehicle: Klucel (hydroxypropylcellulose) (HPC)) 90 % of control.

Turning to `O=C1OC(=O)C23CCC(CC2)C2CCC13CC2`, the T/C reads like this: under setting [5], 97 % of control; under setting [6], 110 % of control; (dose: 200.0 mg/kg/injection, schedule: Q01DX009 (ip), vehicle: saline) 98 % of control; under setting [7], 110 % of control; (dose: 400.0 mg/kg/injection, schedule: Q01DX009 (ip), vehicle: saline) 93 % of control; under setting [8], 109 % of control.

As to `CC1CCCCN1CCCO` (stereo unspecified), the T/C (dose: 25.0 mg/kg/injection, schedule: Q01DX009 (ip), vehicle: saline) was 87 % of control; the T/C (dose: 25.0 mg/kg/injection, schedule: Q04DX003 (ip), vehicle: saline) is 103 % of control; the T/C (dose: 50.0 mg/kg/injection, schedule: Q01DX009 (ip), vehicle: saline) was 91 % of control; the T/C (dose: 50.0 mg/kg/injection, schedule: Q04DX003 (ip), vehicle: saline) was 112 % of control; the T/C under setting [5] was 89 % of control; the T/C under setting [6] was 92 % of control and 95 % of control.

In the case of `NC(C(=O)O)C(O)c1ccc2c(c1)OCO2` (stereo unspecified), the T/C by setting is: (dose: 100.0 mg/kg/injection, schedule: Q01DX009 (ip), vehicle: saline with Tween-80) 103 % of control; (dose: 200.0 mg/kg/injection, schedule: Q01DX009 (ip), vehicle: saline with Tween-80) 103 % of control; (dose: 400.0 mg/kg/injection, schedule: Q01DX009 (ip), vehicle: saline with Tween-80) 113 % of control.

For the compound `CC(=O)Nc1ccc(Cc2ccc(Cl)cc2)cc1`, the T/C is 95 % of control under setting [9] and 98 % of control under setting [10].

`CC1=CC(C(=O)O)P(C)(=O)C1` (stereo unspecified): the T/C runs as follows: (dose: 100.0 mg/kg/injection, schedule: Q04DX002 (ip), vehicle: saline with Tween-80) 92 % of control; (dose: 400.0 mg/kg/injection, schedule: Q04DX002 (ip), vehicle: saline with Tween-80) 88 % of control.

In the case of `COc1ccc(NC(=O)Nc2ccc(C3=NCCN3)cc2)cc1NC(=O)Nc1ccc(C2=NCCN2)cc1`, the T/C is 107 % of control under setting [2]; 102 % of control (dose: 16.0 mg/kg/injection, schedule: Q01DX Z (ip), vehicle: carboxymethylcellulose (CMC)); 100 % of control (dose: 31.0 mg/kg/injection, schedule: Q01DX Z (ip), vehicle: carboxymethylcellulose (CMC)); 104 % of control (dose: 62.0 mg/kg/injection, schedule: Q01DX Z (ip), vehicle: carboxymethylcellulose (CMC)); 102 % of control (dose: 125.0 mg/kg/injection, schedule: Q01DX Z (ip), vehicle: carboxymethylcellulose (CMC)).

Turning to `N/C(=N/N=C/c1cc(Cl)ccc1O)N/N=C\c1cc(Cl)ccc1O`, the T/C runs as follows: (dose: 15.0 mg/kg/injection, schedule: Q01DX Z (ip), vehicle: methylcellulose (MC)) 107 % of control; (dose: 30.0 mg/kg/injection, schedule: Q01DX Z (ip), vehicle: methylcellulose (MC)) 104 % of control; under setting [1], 119 % of control; (dose: 60.0 mg/kg/injection, schedule: Q01DX Z (oral), vehicle: methylcellulose (MC)) 94 % of control; (dose: 120.0 mg/kg/injection, schedule: Q01DX Z (ip), vehicle: methylcellulose (MC)) 108 % of control; (dose: 120.0 mg/kg/injection, schedule: Q01DX Z (oral), vehicle: methylcellulose (MC)) 93 % of control. For the same compound, where the note is “dose: 240.0 mg/kg/injection, schedule: Q01DX Z (oral), vehicle: methylcellulose (MC)”, the T/C is 100 % of control.

As to `O=C1OC2CC3CC2C1C3C(=O)N1CCOCC1` (stereo unspecified), the T/C reads like this: under setting [6], 100 % of control and 96 % of control; under setting [7], 91 % of control and 98 % of control; under setting [8], 100 % of control and 98 % of control.

With `CC(=O)CCCC1C(=O)N(c2ccccc2)N(c2ccccc2)C1=O`, the T/C by setting is: under setting [11], 102 % of control; under setting [3], 101 % of control; under setting [4], 96 % of control.

Turning to `Nc1ccc(OCC(=O)Nc2ccc(S(=O)(=O)F)cc2)cc1`, the T/C runs as follows: under setting [9], 101 % of control; under setting [10], 103 % of control.

As to `O=C(CCc1ccc(N(CCCl)CCCl)cc1)NC1CCCC1`, the T/C is, setting by setting: under setting [11], 116 % of control; under setting [3], 115 % of control; under setting [4], 115 % of control.
